We go through eleven molecules from the Kinase Knowledgebase extract (Sharma et al. 2016).

Each structure is given as a SMILES string.

For this assay, the target named is EGFR (human) (UniProt P00533).
Chain of EGFR (human) (P00533 whole entry, looked up): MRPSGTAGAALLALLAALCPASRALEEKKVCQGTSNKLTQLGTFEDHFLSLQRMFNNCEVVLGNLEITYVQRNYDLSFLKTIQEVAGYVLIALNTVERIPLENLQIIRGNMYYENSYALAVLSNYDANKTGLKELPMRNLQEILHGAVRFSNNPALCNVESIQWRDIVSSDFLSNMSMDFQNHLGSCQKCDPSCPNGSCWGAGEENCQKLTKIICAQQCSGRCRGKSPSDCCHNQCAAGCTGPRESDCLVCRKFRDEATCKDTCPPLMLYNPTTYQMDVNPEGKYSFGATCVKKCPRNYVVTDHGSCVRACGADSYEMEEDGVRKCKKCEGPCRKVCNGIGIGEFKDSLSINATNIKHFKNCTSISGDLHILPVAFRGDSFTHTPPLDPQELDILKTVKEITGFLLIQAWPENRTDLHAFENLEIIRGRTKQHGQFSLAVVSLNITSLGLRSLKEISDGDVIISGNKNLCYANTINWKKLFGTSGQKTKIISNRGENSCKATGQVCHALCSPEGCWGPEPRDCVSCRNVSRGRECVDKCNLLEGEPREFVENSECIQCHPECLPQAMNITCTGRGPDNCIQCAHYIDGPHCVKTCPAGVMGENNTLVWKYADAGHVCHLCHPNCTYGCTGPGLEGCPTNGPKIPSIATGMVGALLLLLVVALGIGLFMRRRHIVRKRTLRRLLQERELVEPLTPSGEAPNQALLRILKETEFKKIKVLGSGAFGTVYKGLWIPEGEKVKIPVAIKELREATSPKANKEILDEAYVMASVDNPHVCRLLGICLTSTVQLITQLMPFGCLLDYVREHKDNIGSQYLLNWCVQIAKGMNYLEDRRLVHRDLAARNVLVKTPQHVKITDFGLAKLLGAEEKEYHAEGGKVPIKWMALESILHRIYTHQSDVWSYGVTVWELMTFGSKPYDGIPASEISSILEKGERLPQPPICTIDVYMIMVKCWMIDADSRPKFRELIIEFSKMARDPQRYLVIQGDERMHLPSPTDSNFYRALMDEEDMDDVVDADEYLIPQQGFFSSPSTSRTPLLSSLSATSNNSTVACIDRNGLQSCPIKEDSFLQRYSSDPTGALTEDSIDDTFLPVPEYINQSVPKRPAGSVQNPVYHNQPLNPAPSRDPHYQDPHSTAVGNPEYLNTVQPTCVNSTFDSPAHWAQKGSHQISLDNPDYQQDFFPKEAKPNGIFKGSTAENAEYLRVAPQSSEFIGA

Broadly, the IC50 is the concentration at which inhibition is half-maximal. Read a low IC50 as higher potency. In the case of `C#CCN1CCC[C@H]1CON=C(C#CC)c1ccc2ncnc(Nc3ccc(OCc4cccc(F)c4)c(Cl)c3)c2c1`, the IC50 came out at 275 nM.

The molecule `CC#CC(=NOC[C@@H]1COCCN1)c1ccc2ncnc(Nc3ccc(OCc4ccccn4)c(Cl)c3)c2c1` yielded an IC50 of 6.2 nM.

In turn, `CC#CC(=NOCC(=O)NCCO)c1ccc2ncnc(Nc3ccc(COc4cccc(F)c4)c(Cl)c3)c2c1` yielded an IC50 of 122 nM. Compared with the last molecule, the IC50 is about 20-fold higher.

`CC#CC(=NOC[C@H]1COCCN1)c1ccc2ncnc(Nc3ccc(OCc4cccc(F)c4)c(Cl)c3)c2c1`: the IC50 came to 118 nM.

In turn, `Fc1cccc(OCc2ccc(Nc3ncnc4ccc(C=NN5CCCCC5)cc34)cc2Cl)c1` yielded an IC50 of 193 nM.

With `CN(N=Cc1ccc2ncnc(Nc3ccc(COc4cccc(F)c4)c(Cl)c3)c2c1)c1ccccc1`, the IC50 came to 426 nM. Compared with the last molecule, the IC50 is about 2.2-fold higher.

For `CC#CC(=NOCC(=O)NCCN(C)C)c1ccc2ncnc(Nc3ccc(COc4cccc(F)c4)c(Cl)c3)c2c1`, the IC50 was found to be 20 nM. This IC50 lies about 21-fold lower than the previous one.

Consider `CC#CC(=NOCC(=O)NCCOS(C)(=O)=O)c1ccc2ncnc(Nc3ccc(COc4cccc(F)c4)c(Cl)c3)c2c1`, for which the IC50 was found to be 47 nM.

With `COC[C@@H]1CCCN1N=Cc1ccc2ncnc(Nc3ccc(COc4cccc(F)c4)c(Cl)c3)c2c1`, the IC50 is 344 nM.

In turn, `CC#CC(=NOC[C@@H]1COCCN1)c1ccc2ncnc(Nc3ccc(OCc4cccc(F)c4)c(Cl)c3)c2c1` displayed an IC50 of 101 nM.

`CC#CC(=NOC[C@@H]1C[C@H](O)CN1)c1ccc2ncnc(Nc3ccc4c(cnn4Cc4cccc(F)c4)c3)c2c1` registered an IC50 of 9.7 nM.
